The record followed here is patent publication US7834028B2, “Pyrazolo-tetrahydro pyridine derivatives as orexin receptor antagonists” (Actelion Pharmaceuticals Ltd., priority 2006, dated 2010).

The target in one assay is T1, human orexin-1 receptor (Homo sapiens, UniProt O43613).
T1 construct: expressed in transfected cells; host or cells: CHO cells (G418 selection)
T1 sequence (O43613 1-425): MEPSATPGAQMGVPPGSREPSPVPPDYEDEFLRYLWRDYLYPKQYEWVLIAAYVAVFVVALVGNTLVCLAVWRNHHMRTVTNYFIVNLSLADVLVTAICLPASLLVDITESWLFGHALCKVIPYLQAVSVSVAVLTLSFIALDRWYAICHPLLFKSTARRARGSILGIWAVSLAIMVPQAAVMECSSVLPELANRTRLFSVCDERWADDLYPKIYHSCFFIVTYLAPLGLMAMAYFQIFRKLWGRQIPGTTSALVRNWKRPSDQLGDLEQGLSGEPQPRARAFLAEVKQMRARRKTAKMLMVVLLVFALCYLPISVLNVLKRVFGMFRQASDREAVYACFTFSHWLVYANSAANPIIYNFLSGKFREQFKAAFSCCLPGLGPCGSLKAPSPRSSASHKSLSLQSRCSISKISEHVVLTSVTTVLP
In words: Intracellular calcium measurements (FLIPR), orexin-A induced, CHO cells expressing human orexin-1 receptor. The format is cell-based. The conditions noted are these: 10 nM orexin-A as agonist, read-out: IC50 OX1. The procedure: (§1) The orexin receptor antagonistic activity of the compounds of formula (I) and/or (Ia) is determined in accordance with the following experimental method.
(§2) Intracellular Calcium Measurements:
(§3) Chinese hamster ovary (CHO) cells expressing the human orexin-1 receptor and the human orexin-2 receptor, respectively, are grown in culture medium (Ham F-12 with L-Glutamine) containing 300 μg/ml G418, 100 U/ml penicillin, 100 μg/ml streptomycin and 10% inactivated fetal calf serum (FCS). The cells are seeded at 80'000 cells/well into 96-well black clear bottom sterile plates (Costar) which have been precoated with 1% gelatine in Hanks' Balanced Salt Solution (HBSS). All reagents are from Gibco BRL. The seeded plates are incubated overnight at 37° C. in 5% CO2.
(§4) Human orexin-A as an agonist is prepared as 1 mM stock solution in methanol:water (1:1), diluted in HBSS containing 0.1% bovine serum albumin (BSA) and 2 mM HEPES for use in the assay at a final concentration of 10 nM.
(§5) Antagonists are prepared as 10 mM stock solution in DMSO, then diluted in 96-well plates, first in DMSO, then in HBSS containing 0.1% bovine serum albumin (BSA) and 2 mM HEPES.
(§6) On the day of the assay, 100 μl of loading medium (HBSS containing 1% FCS, 2 mM HEPES, 5 mM probenecid (Sigma) and 3 μM of the fluorescent calcium indicator fluo-3 AM (1 mM stock solution in DMSO with 10% pluronic acid) (Molecular Probes) is added to each well.
(§7) The 96-well plates are incubated for 60 min at 37° C. in 5% CO2. The loading solution is then aspirated and cells are washed 3 times with 200 μl HBSS containing 2.5 mM probenecid, 0.1% BSA, 2 mM HEPES. 100 μl of that same buffer is left in each well.
(§8) Within the Fluorescent Imaging Plate Reader (FLIPR, Molecular Devices), antagonists are added to the plate in a volume of 50 μl, incubated for 20 min and finally 100 μl of agonist is added. Fluorescence is measured for each well at 1 second intervals, and the height of each fluorescence peak is compared to the height of the fluorescence peak induced by 10 nM orexin-A with buffer in place of antagonist. For each antagonist, IC50 value (the concentration of compound needed to inhibit 50% of the agonistic response) is determined. Antagonistic activities of compounds are in the nanomolar range with respect to OX1 and OX2 receptors.

In another assay the target is T2, human orexin-2 receptor (Homo sapiens, UniProt O43614).
T2 construct: expressed in transfected cells; host or cells: CHO cells (G418 selection)
T2 sequence (O43614 1-444): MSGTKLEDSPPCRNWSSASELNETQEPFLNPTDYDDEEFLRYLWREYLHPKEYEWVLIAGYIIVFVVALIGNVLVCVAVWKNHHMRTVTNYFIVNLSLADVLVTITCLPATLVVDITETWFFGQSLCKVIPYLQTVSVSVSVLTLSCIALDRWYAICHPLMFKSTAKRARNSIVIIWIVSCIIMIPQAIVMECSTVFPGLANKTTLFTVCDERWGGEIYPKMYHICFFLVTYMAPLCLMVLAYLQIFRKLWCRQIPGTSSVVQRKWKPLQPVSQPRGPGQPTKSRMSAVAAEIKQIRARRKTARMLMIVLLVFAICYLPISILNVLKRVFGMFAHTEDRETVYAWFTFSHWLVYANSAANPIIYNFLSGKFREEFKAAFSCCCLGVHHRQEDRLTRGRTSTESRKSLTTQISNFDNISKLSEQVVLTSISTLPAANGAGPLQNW
In words: Intracellular calcium measurements (FLIPR), orexin-A induced, CHO cells expressing human orexin-2 receptor. As to conditions: 10 nM orexin-A as agonist, read-out: IC50 OX2. The format is cell-based. The protocol:
as §1, §2, §3, §4, §5, §6, §7, §8

SMILES strings stand for the structures.

A word on the IC50: it is the point on the concentration scale where inhibition reaches its midpoint. Turning to `CCn1nc(C)c2c1CCN([C@@H](C(=O)NC)c1ccccc1)[C@H]2CCc1ccc(C)cc1` (stereo in doubt) [Example 6, 2-[1-Ethyl-3-methyl-4-(2-p-tolyl-ethyl)-1,4,6,7-tetrahydro-pyrazolo[4,3-c]pyridin-5-yl]-N-methyl-2-phenyl-acetamide], the IC50 stood at 75 nM at human orexin-1 receptor and 4 nM at human orexin-2 receptor.

As for `CCn1nc(C)c2c1CCN(C(C(=O)NC)c1ccccc1)C2CCc1cc(C(F)(F)F)ccc1F` (stereo not drawn) [Example 3, 2-{1-Ethyl-4-[2-(2-fluoro-5-trifluoromethyl-phenyl)-ethyl]-3-methyl-1,4,6,7-tetrahydro-pyrazolo[4,3-c]pyridin-5-yl}-N-methyl-2-phenyl-acetamide], the IC50 on human orexin-1 receptor is 49 nM; at human orexin-2 receptor it was 3 nM.

As for `CCn1nc(C)c2c1CCN([C@@H](C(=O)NC)c1ccccc1)[C@H]2CCc1ccc(C(F)(F)F)cc1F` [Example 31, 2-{1-Ethyl-4-[2-(2-fluoro-4-trifluoromethyl-phenyl)-ethyl]-3-methyl-1,4,6,7-tetrahydro-pyrazolo[4,3-c]pyridin-5-yl}-N-methyl-2-phenyl-acetamide], the IC50 at human orexin-1 receptor was 52 nM; on human orexin-2 receptor it was 8 nM.

Regarding `CCn1nc(C)c2c1CCN([C@@H](C(=O)NC)c1ccccc1)[C@H]2CCc1ccc(C)c(F)c1` [Example 32, 2-{1-Ethyl-4-[2-(3-fluoro-4-methyl-phenyl)-ethyl]-3-methyl-1,4,6,7-tetrahydro-pyrazolo[4,3-c]pyridin-5-yl}-N-methyl-2-phenyl-acetamide], the IC50 stood at 49 nM on human orexin-1 receptor and 2 nM at human orexin-2 receptor.

As to `CCn1nc(C)c2c1CCN([C@@H](C(=O)NC)c1ccccc1)[C@H]2CCc1ccc(C)c(C)c1` [Example 33, 2-{4-[2-(3,4-Dimethyl-phenyl)-ethyl]-1-ethyl-3-methyl-1,4,6,7-tetrahydro-pyrazolo[4,3-c]pyridin-5-yl}-N-methyl-2-phenyl-acetamide], the IC50 at human orexin-1 receptor turned out to be 20 nM; at human orexin-2 receptor it was 4 nM.

Regarding `CCn1nc(C)c2c1CCN([C@@H](C(=O)NC)c1ccccc1)[C@H]2CCc1ccc(C)cc1C` [Example 35, 2-{4-[2-(2,4-Dimethyl-phenyl)-ethyl]-1-ethyl-3-methyl-1,4,6,7-tetrahydro-pyrazolo[4,3-c]pyridin-5-yl}-N-methyl-2-phenyl-acetamide], the values for the IC50 at human orexin-1 receptor and on human orexin-2 receptor were 131 nM and 7 nM, respectively.
